Species: Rattus norvegicus
Test: Open TG-GATES - Regimen: Single
Type: toxicity, organism-based, Sprague-Dawley
Design: regimen Single, gender Male, age 6 weeks
Settings: in vivo, sc, 0.02 mg/kg, route subcutaneous injection, dose 20 ug/Kg, dose level Low; for APTT / Bas / Eos / Fbg / Hb / Ht / Lym / MCH / MCHC / MCV / Mono / Neu / PT / Plat / RBC / Ret / WBC: tissue Blood; for KIDNEY_L / KIDNEY_R / KIDNEY_TOTAL: tissue Kidney; for LIVER: tissue Liver; for A/G / ALP / ALT / AST / BUN / CRE / Ca / Cl / DBIL / GLC / IP / K / LDH / Na / PL / RALB / TBIL / TC / TG / TP / gamma-GTP: tissue Plasma

Structure (SMILES): CC(=O)O.N=C(N)NCCC[C@@H](NC(=O)[C@@H]1CCCN1C(=O)[C@@H]1CSSCCC(=O)N[C@@H](Cc2ccc(O)cc2)C(=O)N[C@@H](Cc2ccccc2)C(=O)N[C@@H](CCC(N)=O)C(=O)N[C@@H](CC(N)=O)C(=O)N1)C(=O)NCC(N)=O [DESMOPRESSIN ACETATE]
- TERMINAL_BW (3 h): 210.4 g
- APTT (3 h): 17.8 s
- Bas (3 h): 0%
- Eos (3 h): 1%
- Fbg (3 h): 236 mg/dL
- Hb (3 h): 12.9 g/dL
- Ht (3 h): 39.5%
- Lym (3 h): 71.4%
- MCH (3 h): 22.1 pg
- MCHC (3 h): 32.7%
- MCV (3 h): 67.5 fL
- Mono (3 h): 8.6%
- Neu (3 h): 18.6%
- PT (3 h): 12.3 s
- Plat (3 h): 120.4 x10_4/uL
- RBC (3 h): 586 x10_4/ul
- Ret (3 h): 9.1%
- WBC (3 h): 90.2 x10_2/uL
- KIDNEY_L (3 h): 1 g
- KIDNEY_R (3 h): 1 g
- KIDNEY_TOTAL (3 h): 1.9 g
- LIVER (3 h): 10 g
- A/G (3 h): 2
- ALP (3 h): 1379 IU/L
- ALT (3 h): 39.2 IU/L
- AST (3 h): 68.8 IU/L
- BUN (3 h): 21.2 mg/dL
- CRE (3 h): 0.3 mg/dL
- Ca (3 h): 11.1 mg/dL
- Cl (3 h): 102.8 meq/L
- DBIL (3 h): 0.01 mg/dL
- GLC (3 h): 194.4 mg/dL
- IP (3 h): 9.9 mg/dL
- K (3 h): 4.5 meq/L
- LDH (3 h): 123.8 IU/L
- Na (3 h): 135.4 meq/L
- PL (3 h): 142 mg/dL
- RALB (3 h): 3.6 g/dL
- TBIL (3 h): 0.05 mg/dL
- TC (3 h): 81.8 mg/dL
- TG (3 h): 64.4 mg/dL
- TP (3 h): 5.4 g/dL
- gamma-GTP (3 h): 1 IU/L
- TERMINAL_BW (6 h): 202.1 g
- APTT (6 h): 17.3 s
- Bas (6 h): 0%
- Eos (6 h): 1%
- Fbg (6 h): 232.8 mg/dL
- Hb (6 h): 12.9 g/dL
- Ht (6 h): 39.6%
- Lym (6 h): 77.8%
- MCH (6 h): 21.5 pg
- MCHC (6 h): 32.6%
- MCV (6 h): 66.1 fL
- Mono (6 h): 8%
- Neu (6 h): 13.2%
- PT (6 h): 12.7 s
- Plat (6 h): 116.8 x10_4/uL
- RBC (6 h): 598.6 x10_4/ul
- Ret (6 h): 9.1%
- WBC (6 h): 105.6 x10_2/uL
- KIDNEY_L (6 h): 1 g
- KIDNEY_R (6 h): 1 g
- KIDNEY_TOTAL (6 h): 2 g
- LIVER (6 h): 9.1 g
- A/G (6 h): 1.9
- ALP (6 h): 1160 IU/L
- ALT (6 h): 31.2 IU/L
- AST (6 h): 60 IU/L
- BUN (6 h): 25.4 mg/dL
- CRE (6 h): 0.3 mg/dL
- Ca (6 h): 10.8 mg/dL
- Cl (6 h): 103.6 meq/L
- DBIL (6 h): 0.014 mg/dL
- GLC (6 h): 199 mg/dL
- IP (6 h): 9.6 mg/dL
- K (6 h): 4.8 meq/L
- LDH (6 h): 109.4 IU/L
- Na (6 h): 135 meq/L
- PL (6 h): 142.8 mg/dL
- RALB (6 h): 3.5 g/dL
- TBIL (6 h): 0.074 mg/dL
- TC (6 h): 85 mg/dL
- TG (6 h): 62.4 mg/dL
- TP (6 h): 5.3 g/dL
- gamma-GTP (6 h): 1 IU/L
- TERMINAL_BW (9 h): 202.1 g
- APTT (9 h): 16.9 s
- Bas (9 h): 0%
- Eos (9 h): 1.4%
- Fbg (9 h): 229 mg/dL
- Hb (9 h): 13 g/dL
- Ht (9 h): 40.1%
- Lym (9 h): 72%
- MCH (9 h): 21.8 pg
- MCHC (9 h): 32.6%
- MCV (9 h): 67.1 fL
- Mono (9 h): 8.4%
- Neu (9 h): 18.4%
- PT (9 h): 12.8 s
- Plat (9 h): 118 x10_4/uL
- RBC (9 h): 598.2 x10_4/ul
- Ret (9 h): 9.3%
- WBC (9 h): 94.6 x10_2/uL
- KIDNEY_L (9 h): 1 g
- KIDNEY_R (9 h): 0.9 g
- KIDNEY_TOTAL (9 h): 1.9 g
- LIVER (9 h): 8.7 g
- A/G (9 h): 2.2
- ALP (9 h): 1148.8 IU/L
- ALT (9 h): 32.2 IU/L
- AST (9 h): 62.6 IU/L
- BUN (9 h): 24.4 mg/dL
- CRE (9 h): 0.3 mg/dL
- Ca (9 h): 11 mg/dL
- Cl (9 h): 103.8 meq/L
- DBIL (9 h): 0.016 mg/dL
- GLC (9 h): 198.4 mg/dL
- IP (9 h): 10.6 mg/dL
- K (9 h): 5.1 meq/L
- LDH (9 h): 143.8 IU/L
- Na (9 h): 136.4 meq/L
- PL (9 h): 136.6 mg/dL
- RALB (9 h): 3.6 g/dL
- TBIL (9 h): 0.056 mg/dL
- TC (9 h): 78.2 mg/dL
- TG (9 h): 47.6 mg/dL
- TP (9 h): 5.3 g/dL
- gamma-GTP (9 h): 0.4 IU/L
- TERMINAL_BW (24 h): 220.6 g
- APTT (24 h): 16.9 s
- Bas (24 h): 0%
- Eos (24 h): 1%
- Fbg (24 h): 245.2 mg/dL
- Hb (24 h): 12.8 g/dL
- Ht (24 h): 39.6%
- Lym (24 h): 74%
- MCH (24 h): 21.3 pg
- MCHC (24 h): 32.4%
- MCV (24 h): 65.9 fL
- Mono (24 h): 7.8%
- Neu (24 h): 17.2%
- PT (24 h): 12.1 s
- Plat (24 h): 134.8 x10_4/uL
- RBC (24 h): 601 x10_4/ul
- Ret (24 h): 10.2%
- WBC (24 h): 109.6 x10_2/uL
- KIDNEY_L (24 h): 1 g
- KIDNEY_R (24 h): 1 g
- KIDNEY_TOTAL (24 h): 1.9 g
- LIVER (24 h): 10.3 g
- A/G (24 h): 2
- ALP (24 h): 1595.4 IU/L
- ALT (24 h): 35 IU/L
- AST (24 h): 63.8 IU/L
- BUN (24 h): 15 mg/dL
- CRE (24 h): 0.4 mg/dL
- Ca (24 h): 11.3 mg/dL
- Cl (24 h): 104.8 meq/L
- DBIL (24 h): 0 mg/dL
- GLC (24 h): 193.2 mg/dL
- IP (24 h): 7.8 mg/dL
- K (24 h): 5.2 meq/L
- LDH (24 h): 137 IU/L
- Na (24 h): 137.8 meq/L
- PL (24 h): 152.8 mg/dL
- RALB (24 h): 3.7 g/dL
- TBIL (24 h): 0.022 mg/dL
- TC (24 h): 83.8 mg/dL
- TG (24 h): 98.6 mg/dL
- TP (24 h): 5.5 g/dL
- gamma-GTP (24 h): 1.2 IU/L

Reference: ChEMBL document CHEMBL3885861, “Open TG-GATES”
